{
  "source": "patent US20240409899A1",
  "about": "“PRODUCTION OF HEPATOCYTES” (Cambridge Enterprise Limited (GB/GB), priority 2021, published 2024)",
  "key": {"FoP-Heps [1]": {"test_system": "FoP-Heps", "test": "Fatty acid treatment, intracellular lipid accumulation (BODIPY staining) in 3D FoP-Heps", "type": "cell-based, human", "details": "0.25 mM conjugated with BSA, 7 days, 3D culture from day 20; 4TF eFoP- and iFoP-Heps; BSA control", "protocol": "(§1) Forward programmed cells were embedded in 3D from day 20 and cultured for 7 days in Hepatozyme complete medium supplemented with either BSA (control), or oleic acid (0.25 mM) or palmitic acid (0.25 mM) conjugated with BSA. Intracellular lipid accumulation was detected by incubating cells with 1 μl/ml Bodipy (Thermo scientific) for 30 minutes, followed by DAPI (Hoechst) diluted 1:10.000 in PBS for 30 minutes and imaged on a Zeiss LSM 700 confocal microscope."}, "FoP-Heps [2]": {"test_system": "FoP-Heps", "test": "CYP3A4 activity (P450 Glo) in FoP-Heps treated with exogenous nuclear receptor ligands", "details": "for effect on CYP3A4 activity: vs untreated control, FoP-Heps with 3TFs plus the ligand's nuclear receptor (AR for testosterone, RORc for desmosterol)", "protocol": "hPSCs were dissociated into single cells following incubation with StemPro Accutase (Thermo Fisher) for 5 minutes at 37° C. and seeded at a density of 40-50.000 cells/cm2 in E8 medium supplemented with 10 μM ROCK Inhibitor Y-27632 (Selleckchem). E8 medium was replenished the following day. Following 48 h, initial induction of the transgenes was achieved by incubation in E6 medium (E8 without growth factors) supplemented with […] doxycycline (dox) for 24 h. Cells were then maintained in Hepatozyme complete medium supplemented with […] dox for the remaining duration of the protocol. Medium was replenished every day for the next 4 days, and every other day here after. For specific experiments, cell lines were treated with 100 nM of desmosterol, testosterone or […] (E2) from day 2 of forward programming. All ligands were purchased from Sigma-Aldrich and reconstituted in ethanol. For 3D cultures, forward programmed cells were embedded in Matrigel Growth Factor Reduced Basement Membrane Matrix, Phenol Red-free (Corning) at day 15 or day 20 and cultured for 5 days or 10 days, respectively. Cells were dissociated with Hank's based cell dissociation buffer (Gibco) for 20 minutes at 37° C., resuspended in Matrigel and seeded in 40-50 μL domes in Hepatozyme complete medium supplemented with […] dox.\nMeasurement of CYP3A4 enzymatic activity was performed using the P450 Glo kit (Promega). Cells were incubate with 1:1000 luciferin-IPA in Hepatozyme complete for 1 h at 37° C. Supernatant was mixed with detection reagent in a 1:1 ratio and incubated at RT for 20 minutes in Greiner white 96 well microplates (Sigma Aldrich). Luminescence was measured in triplicate on a GloMax plate reader. Hepatozyme complete medium was used as background control. Relative light units were normalised for background, volume and average total number of cells obtained after differentiation."}, "FoP-Heps [3]": {"test_system": "FoP-Heps", "test": "APAP toxicity, cell viability (Presto Blue) in 3D FoP-Heps", "type": "cell-based, human", "details": "25 mM for 48 h (day 18 to day 20), 3D cultures; 4TF FoP-Heps; normalised against untreated", "protocol": "The hepatotoxicity of acetaminophen (APAP) was tested by incubating forward programmed cells cultured in 3D from day 15 in Hepatozyme complete medium supplemented with 25 mM acetaminophen (R&D) for 48 h hours (day 18 to day 20) after which cell viability was determined.\n(§2) Cell viability was determined by incubating cells with 1:10 Presto Blue reagent (Invitrogen) in Hepatozyme complete medium at 37° C. for 4 hours. Fluorescence was measured using the EnVision plate reader with an excitation emission of 560 nm/590 nm."}, "FoP-Heps [4]": {"test_system": "FoP-Heps", "test": "Fatty acid treatment, cell viability (Presto Blue) in 3D FoP-Heps", "type": "cell-based, human", "details": "0.25 mM conjugated with BSA, 7 days, 3D culture from day 20; 4TF FoP-Heps; normalised against BSA control", "protocol": "as §1, §2"}, "[5]": {"details": "100 nM ligand from day 2, day 20 of forward programming"}},
  "data": [
    {"molecule": "CCCCCCCC/C=C\\CCCCCCCC(=O)O", "note": "[OA, oleic acid]", "values": [
      {"measurement": "accumulation of lipids (BODIPY staining)", "setting": "FoP-Heps [1]", "value": "strong accumulation of lipids"}
    ]},
    {"molecule": "C[C@]12CC[C@H]3[C@@H](CCC4=CC(=O)CC[C@@]43C)[C@@H]1CC[C@@H]2O", "note": "[testosterone]", "values": [
      {"measurement": "effect on CYP3A4 activity", "setting": "FoP-Heps [2]; [5]", "value": "significantly decreased"}
    ]},
    {"molecule": "CC(=O)Nc1ccc(O)cc1", "note": "[acetaminophen]", "values": [
      {"measurement": "reduction in cell viability", "setting": "FoP-Heps [3]", "value": 50, "unit": "%"}
    ]},
    {"molecule": "CC(C)=CCC[C@@H](C)[C@H]1CC[C@H]2[C@@H]3CC=C4C[C@@H](O)CC[C@]4(C)[C@H]3CC[C@]12C", "note": "[desmosterol]", "values": [
      {"measurement": "effect on CYP3A4 activity", "setting": "FoP-Heps [2]; [5]", "value": "no effect"}
    ]},
    {"molecule": "CCCCCCCCCCCCCCCC(=O)O", "note": "[PA, palmitic acid]", "values": [
      {"measurement": "cell viability (lipotoxicity)", "setting": "FoP-Heps [4]", "value": "reduction in cell viability"}
    ]},
    {"molecule": "β-estradiol [p3-estradiol]", "values": [
      {"measurement": "increase in CYP3A4 activity", "setting": "FoP-Heps [2]; 100 nM ligand from day 2, day 20 of forward programming, normalised to untreated control, FoP-Heps with 3TFs plus the ligand's nuclear receptor (ERα)", "value": 3, "unit": "fold"},
      {"measurement": "increase in CYP3A4 activity in 3TFs FoP-Heps", "setting": "FoP-Heps [2]; 3TFs FoP-Heps without overexpressed nuclear receptor, 100 nM ligand", "value": "not observed"}
    ]}
  ]
}
